Test results from EP0339358B1, “Pyrazolopyridine type mevalonolactones” (NISSAN CHEMICAL INDUSTRIES LTD., priority 1988, dated 1989).

How the values were obtained:
cholesterol biosynthesis = experiment: Test C: Inhibition of cholesterol biosynthesis in vivo; set-up: species or system Male Sprague-Dawley rats; conditions: oral administration of 0.2 mg/kg; relative to the measured value of the control group; serum nonsaponifiable lipids
Description: Male Sprague-Dawley rats weighing about 150 g were fed normal Purina chow diet and water ad libitum, and exposed to 12 hours light/12 hours dark lighting pattern (2:00 PM - 2:00 AM dark) prior to use for in vivo inhibition test of cholesterol biosynthesis. Animals were separated groups consisting of five rats as to be average mean body weight in each groups. Test compounds at dosage of 0.02-0.2 mg/kg body weight (0.4 ml/100 g body weight), were dissolved in water or suspended in 0.5% methyl cellulose and orally administered at 2-3 hours before mid-dark (8:00 PM), while cholesterol biosynthesis reaches to maximum in rats. As control, rats were orally administered only water or vehicle. At 90 minutes after sample administration, rats were injected intraperitoneally with 10 »Ci of [2-¹⁴C]sodium acetate at volume of 0.2 ml per one. 2 Hours later, blood samples were obtained and serum were separated immediately. Total lipids were extracted according to the method of Folch et al. and saponified with EtOH-KOH. Nonsaponifiable lipids were extracted with petroleum ether and radio activity incorporated into nonsaponifiable lipids was counted.
Inhibitory activity was indicated as percent decrease of counts in testing groups (DPM/2 ml serum/2 hours) from that in control group.

Test D: Acute toxicity = conditions: mouse, in vivo, po, 1000 mg/kg; orally administered 1,000 mg/kg, 0.5% CMC suspension; mortality after seven days; group of three mice
Description: A 0.5% CMC suspension of a test compound was orally administered to ICR male mice (group of three mice). The acute toxicity was determined based on the mortality after seven days. With compound I-5-1, I-5-2, I-5-4, I-5-7, I-5-10, I-5-11, I-5-12, I-5-14 and I-5-15 of the present invention, the mortality was 0% even when they were orally administered in an amount of 1,000 mg/kg, respectively.

Hep G2 cells = molecular target: T1, Hep G2 cells (Homo sapiens, UniProt P04035); experiment: Test B-1: Inhibition of cholesterol biosynthesis in culture cells ([2-14C]sodium acetate added at 0 hr after addition of compounds); type: cell-based; conditions: HepG2, concentration of 1.0 x 10⁻⁷ mol/ℓ, read-out: Inhibitory activities %
T1 sequence (P04035 1-888): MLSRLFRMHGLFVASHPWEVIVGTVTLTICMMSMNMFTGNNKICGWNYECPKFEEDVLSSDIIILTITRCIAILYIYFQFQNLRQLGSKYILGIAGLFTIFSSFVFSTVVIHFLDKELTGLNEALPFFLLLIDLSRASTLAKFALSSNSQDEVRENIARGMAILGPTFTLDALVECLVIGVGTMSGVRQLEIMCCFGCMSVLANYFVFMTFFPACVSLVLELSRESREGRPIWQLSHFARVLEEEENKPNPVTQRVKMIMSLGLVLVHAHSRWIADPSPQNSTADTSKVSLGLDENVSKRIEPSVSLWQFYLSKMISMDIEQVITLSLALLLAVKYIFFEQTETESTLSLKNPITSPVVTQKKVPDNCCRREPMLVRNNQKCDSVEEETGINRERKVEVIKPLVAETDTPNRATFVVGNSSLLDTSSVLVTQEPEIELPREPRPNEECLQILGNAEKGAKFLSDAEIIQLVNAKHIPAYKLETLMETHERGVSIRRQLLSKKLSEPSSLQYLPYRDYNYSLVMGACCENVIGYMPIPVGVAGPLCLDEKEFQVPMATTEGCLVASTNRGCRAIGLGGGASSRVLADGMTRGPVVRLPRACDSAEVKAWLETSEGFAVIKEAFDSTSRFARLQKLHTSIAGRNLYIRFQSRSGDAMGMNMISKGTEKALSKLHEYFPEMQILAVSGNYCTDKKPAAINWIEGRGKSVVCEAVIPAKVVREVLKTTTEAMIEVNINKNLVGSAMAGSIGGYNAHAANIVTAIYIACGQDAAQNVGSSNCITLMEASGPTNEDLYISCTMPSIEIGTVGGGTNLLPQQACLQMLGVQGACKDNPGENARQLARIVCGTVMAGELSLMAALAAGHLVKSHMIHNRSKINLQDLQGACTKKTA
Description: Hep G2 cells at over 5th passage were seeded to 12 well plates and incubated with Dulbecco's modified Eagle (DME) medium containing 10% of fetal bovine serum (FBS) at 37°C, 5% CO₂ until cells were confluent for about 7 days. Cells were exposed to the DME medium contaiing 5% of lipoprotein deficient serum (LpDS) prepared by ultracentrifugation method for over 24 hours. Medium was changed to 0.5 ml of fresh 5% LpDS containing DME before assay and 10 »l of test compound solution dissolved in water or DMSO were added. 0.2 »Ci of [2-¹⁴C]sodium acetate (20 »l) was added at 0 hr(B-1) or 4 hrs(B-2) after addition of compounds. After 4 hrs further incubation with [2-¹⁴C]sodium acetate, medium was removed and cells were washed with phosphate buffered saline (PBS) chilled at 4°C. Cells were scraped with rubber policeman and collected to tubes with PBS and digested with 0.2 ml of 0.5 N KOH at 37°C. Aliquot of digestion was used for protein analysis and remaining was saponified with 1 ml of 15% EtOH-KOH at 75°C for 1 hour. Nonsaponifiable lipids were extracted with petroleum ether and ¹⁴C radioactivity was counted. Counts were revised by cell protein and indicated with DPM/mg protein. Inhibitory activity of compounds was indicated with IC50.

Structure (SMILES): CCC(C)C(=O)OC1CC(O)C=C2C=CC(C)C(CCC(O)CC(O)CC(=O)O)C21 (stereo not shown) [CS-514, reference compound]
- percent decrease of counts (cholesterol biosynthesis): 39%

Structure (SMILES): Cc1nn(C)c2nc(C(C)C)c(/C=C/C(O)CC(O)CC(=O)O)c(-c3ccc(F)cc3)c12 (stereo not shown) [Compound I-5-1, Sodium (E)-7-[4′-(4˝-fluorophenyl)-1′,3′-dimethyl-6′-(1˝-methylethyl)pyrazolo[3,4-b]pyridin-5#MIN#-yl]-3,5-dihydroxyhept-6-enoate]
- mortality at 168 h (Test D: Acute toxicity): 0%

Structure (SMILES): Cc1nn(-c2ccccc2)c2nc(C(C)C)c(/C=C/C(O)CC(O)CC(=O)O)c(-c3ccc(F)cc3)c12 (stereo not shown) [Compound I-5-2]
- mortality at 168 h (Test D: Acute toxicity): 0%

Structure (SMILES): Cc1c2c(-c3ccc(F)cc3)c(/C=C/C(O)CC(O)CC(=O)O)c(C(C)C)nc2nn1-c1ccccc1 (stereo not shown) [Compound I-5-3]
- inhibition at 0.1 µM (Hep G2 cells): 36.3%

Structure (SMILES): CC(C)c1nc2c(c(-c3ccccc3)nn2C)c(-c2ccc(F)cc2)c1/C=C/C(O)CC(O)CC(=O)O (stereo not shown) [Compound I-5-4]
- percent decrease of counts (cholesterol biosynthesis): 53%
- mortality at 168 h (Test D: Acute toxicity): 0%

Structure (SMILES): Cc1nn(C)c2nc(C3CC3)c(/C=C/C(O)CC(O)CC(=O)O)c(-c3ccc(F)cc3)c12 (stereo not shown) [Compound I-5-5]
- inhibition at 0.1 µM (Hep G2 cells): 78.2%
- percent decrease of counts (cholesterol biosynthesis): 49%

Structure (SMILES): CC(C)c1nc2c(cnn2-c2ccccc2)c(-c2ccc(F)cc2)c1/C=C/C(O)CC(O)CC(=O)O (stereo not shown) [Compound I-5-6]
- inhibition at 0.1 µM (Hep G2 cells): 53.3%

Structure (SMILES): Cc1nn(C(C)(C)C)c2nc(C(C)C)c(/C=C/C(O)CC(O)CC(=O)O)c(-c3ccc(F)cc3)c12 (stereo not shown) [Compound I-5-7]
- percent decrease of counts (cholesterol biosynthesis): 52%
- mortality at 168 h (Test D: Acute toxicity): 0%

Structure (SMILES): CC(C)c1nc2c(c(C3CC3)nn2C)c(-c2ccc(F)cc2)c1/C=C/C(O)CC(O)CC(=O)O (stereo not shown) [Compound I-5-9]
- inhibition at 0.1 µM (Hep G2 cells): 55.3%

Structure (SMILES): Cc1nn(Cc2ccccc2)c2nc(C(C)C)c(/C=C/C(O)CC(O)CC(=O)O)c(-c3ccc(F)cc3)c12 (stereo not shown) [Compound I-5-10]
- mortality at 168 h (Test D: Acute toxicity): 0%

Structure (SMILES): CC(C)c1nc2c(c(-c3ccc(Cl)cc3)nn2C)c(-c2ccc(F)cc2)c1/C=C/C(O)CC(O)CC(=O)O (stereo not shown) [Compound I-5-11]
- inhibition at 0.1 µM (Hep G2 cells): 58.8%
- mortality at 168 h (Test D: Acute toxicity): 0%

Structure (SMILES): CC(C)c1nc2c(c(C3CC3)nn2-c2ccccc2)c(-c2ccc(F)cc2)c1/C=C/C(O)CC(O)CC(=O)O (stereo not shown) [Compound I-5-12]
- inhibition at 0.1 µM (Hep G2 cells): 47.3%
- mortality at 168 h (Test D: Acute toxicity): 0%

Structure (SMILES): COc1ccc(-n2nc(C)c3c(-c4ccc(F)cc4)c(/C=C/C(O)CC(O)CC(=O)O)c(C(C)C)nc32)cc1 (stereo not shown) [Compound I-5-13]
- inhibition at 0.1 µM (Hep G2 cells): 55.5%

Structure (SMILES): Cn1nc(-c2ccccc2)c2c(-c3ccc(F)cc3)c(/C=C/C(O)CC(O)CC(=O)O)c(C3CC3)nc21 (stereo not shown) [Compound I-5-14]
- mortality at 168 h (Test D: Acute toxicity): 0%

Structure (SMILES): Cc1nn(C(C)(C)C)c2nc(C3CC3)c(/C=C/C(O)CC(O)CC(=O)O)c(-c3ccc(F)cc3)c12 (stereo not shown) [Compound I-5-15]
- mortality at 168 h (Test D: Acute toxicity): 0%

Structure (SMILES): CC(C)(C)n1nc(C2CC2)c2c(-c3ccc(F)cc3)c(/C=C/C(O)CC(O)CC(=O)O)c(C3CC3)nc21 (stereo not shown) [Compound I-5-16]
- inhibition at 0.1 µM (Hep G2 cells): 49%

Structure (SMILES): CC(C)(C)n1nc(-c2ccccc2)c2c(-c3ccc(F)cc3)c(/C=C/C(O)CC(O)CC(=O)O)c(C3CC3)nc21 (stereo not shown) [Compound I-5-17]
- inhibition at 0.1 µM (Hep G2 cells): 36%
